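The compound was tested at five concentrations on cells cultured in 96-well plates, with a 48-hour exposure period. At the GI50, growth is halved. TGI marks complete inhibition of growth.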
Legend:
Experiment in all cases: inhibition of tumour cell growth, NCI panel, 48 h
UO-31 renal = test system: UO-31 renal
MALME-3M melanoma = test system: MALME-3M melanoma
M14 melanoma = test system: M14 melanoma
DMS 114 small cell lung = test system: DMS 114 small cell lung
OVCAR-8 ovarian = test system: OVCAR-8 ovarian
UACC-62 melanoma = test system: UACC-62 melanoma
SK-MEL-28 melanoma = test system: SK-MEL-28 melanoma
MDA-MB-435 = test system: MDA-MB-435
NCI/ADR-RES ovarian = test system: NCI/ADR-RES ovarian

Row | Structure (SMILES) | TGI (UO-31 renal) | TGI (MALME-3M melanoma) | TGI (M14 melanoma) | TGI (DMS 114 small cell lung) | TGI (OVCAR-8 ovarian) | TGI (UACC-62 melanoma) | TGI (SK-MEL-28 melanoma) | GI50 (UO-31 renal) | GI50 (MALME-3M melanoma) | GI50 (M14 melanoma) | GI50 (OVCAR-8 ovarian) | GI50 (MDA-MB-435) | TGI (MDA-MB-435) | GI50 (NCI/ADR-RES ovarian) | TGI (NCI/ADR-RES ovarian) | GI50 (UACC-62 melanoma) | GI50 (SK-MEL-28 melanoma) | GI50 (DMS 114 small cell lung)
1 | C=C1C=CC2(Br)OC3CC(C)(Cl)C(Br)CC13C2(C)C (stereo not given) | 70.5 µM | 34.5 µM | 53.2 µM | 32.4 µM | 77.1 µM | 34.3 µM | 54.4 µM | – | – | – | – | – | – | – | – | – | – | –
2 | O=C1/C(=C/c2ccccc2[N+](=O)[O-])COc2ccc(O)cc21 | 2.63 µM | 4.62 µM | 4.85 µM | – | 47.8 µM | 3.08 µM | 3.14 µM | 1.02 µM | 1.65 µM | 1.9 µM | 2.3 µM | 2.18 µM | 5.96 µM | 1.99 µM | 8.09 µM | 1.52 µM | 1.55 µM | –
3 | CC(=O)Nc1ccc(S(=O)(=O)NN(C)S(=O)(=O)c2ccc(C)cc2)cc1 | > 100 µM | > 100 µM | > 100 µM | > 100 µM | > 100 µM | > 100 µM | > 100 µM | – | – | – | – | – | – | – | – | – | – | –
4 | COc1cc(-c2ncn(/C=C\c3nnco3)n2)cc(C(F)(F)F)c1 | > 100 µM | > 100 µM | 37.2 µM | – | > 47 µM | 13.8 µM | > 34.6 µM | 0.247 µM | 0.464 µM | 0.791 µM | 0.0813 µM | 0.0894 µM | 3.33 µM | 0.2 µM | > 100 µM | 0.354 µM | 0.125 µM | –
5 | C=CC(=O)N[C@@H](/C=C/C(=O)OCC)Cc1ccc(-c2cc(Cl)cc(Cl)c2)cc1 | 96.2 µM | 34.1 µM | 80.6 µM | – | > 100 µM | 25.2 µM | 79.8 µM | 4.42 µM | 10.9 µM | 17 µM | 8.89 µM | 8.58 µM | 50 µM | 11.9 µM | 73.3 µM | 4.6 µM | 18.1 µM | –
6 | N#Cc1cc2c(cc1Cl)Sc1nnc(Nc3cccc4ccccc34)n1S2(=O)=O | 20.5 µM | 5.75 µM | 22.8 µM | – | > 100 µM | 5.28 µM | 16.3 µM | 7.41 µM | 2.03 µM | 3.81 µM | 30.2 µM | 4.35 µM | 16.4 µM | 2.11 µM | 4.4 µM | 2.14 µM | 5.05 µM | –
7 | Cc1ccc(NC(=O)/C(C#N)=C/c2ccccc2)c(C)c1 | > 100 µM | > 100 µM | > 100 µM | > 100 µM | > 100 µM | > 100 µM | > 100 µM | – | – | – | – | – | – | – | – | – | – | –
8 | CN(C)c1nc(N)c(C#N)c(C#N)c1C#N | > 10 µM | > 10 µM | > 10 µM | – | > 10 µM | > 10 µM | > 10 µM | – | – | – | – | – | > 10 µM | – | > 10 µM | – | – | –
9 | Nc1nc(C(=O)O)c(N=Nc2ccccc2)c(=O)[nH]1 | > 100 µM | > 100 µM | > 100 µM | – | > 100 µM | > 100 µM | > 100 µM | – | – | – | – | – | > 100 µM | – | > 100 µM | – | – | –
10 | Nc1nc(-c2ccc(Cl)cc2)nc2c1sc(=S)n2-c1ccccc1 | 4.19 µM | 5.67 µM | 38.1 µM | – | > 100 µM | 22.6 µM | > 100 µM | 1.84 µM | 2.59 µM | 7.87 µM | 5.16 µM | 6.65 µM | > 100 µM | 3.7 µM | 19.8 µM | 4.32 µM | 5.22 µM | –
11 | CC(=O)[CH-]C(C)=O.CC(=O)[CH-]C(C)=O.CC(=O)[CH-]C(C)=O.[Ga+3] | > 100 µM | > 100 µM | > 100 µM | > 100 µM | > 100 µM | > 100 µM | > 100 µM | > 100 µM | > 100 µM | > 100 µM | > 100 µM | – | – | – | – | > 100 µM | > 100 µM | > 100 µM
12 | NCc1ccc(-c2nc(-c3ccc(Cl)c(O)c3)c(-c3ccncc3)[nH]2)cc1 | > 25 µM | 11.2 µM | 24.7 µM | – | > 25 µM | > 25 µM | > 25 µM | 17.2 µM | 2.72 µM | 5.47 µM | > 25 µM | 5.18 µM | > 25 µM | > 25 µM | > 25 µM | 2.53 µM | 5.3 µM | –
13 | CC(=O)CC(=O)CCC(=O)Nc1cccc(C(F)(F)F)c1 | > 100 µM | > 100 µM | > 100 µM | > 100 µM | > 100 µM | > 100 µM | – | – | – | – | – | – | – | – | – | – | – | –
14 | COc1ccc(-c2[nH]c3ccccc3c2/C=C(\C#N)S(=O)(=O)c2ccccc2)cc1 | – | > 82 µM | 14.4 µM | – | > 26.6 µM | 16.3 µM | > 71.9 µM | 1.88 µM | 1.22 µM | 0.383 µM | 1.29 µM | 0.204 µM | 0.642 µM | 0.427 µM | > 25.8 µM | 0.597 µM | 1.48 µM | –
15 | Cc1nnc(N/N=C(/C(=O)C(C#N)c2ccc(Cl)cc2)C(C#N)c2ccc(Cl)cc2)n1N (stereo not given) | 34.1 µM | 33.6 µM | 38.7 µM | 31.4 µM | 41 µM | – | 33.8 µM | – | – | – | – | – | – | – | – | – | – | –
16 | COc1ccc(/C=N\Nc2nc(SCC(C)C)nc(-c3ccc(OC)cc3)c2C#N)cc1 | 3.73 µM | 47.9 µM | 92.2 µM | – | 29.8 µM | > 100 µM | > 100 µM | 1.5 µM | 10.2 µM | 13 µM | 5.3 µM | 17.9 µM | > 100 µM | 10.8 µM | 85.4 µM | 25.2 µM | 30.8 µM | –
17 | CCOC(=O)C(CCCNC(=O)OC(C)(C)C)N(Cc1ccc(OC)cc1OC)C(=O)CC(=O)CP(=O)(OCC)OCC (stereo not given) | > 100 µM | > 100 µM | > 100 µM | > 100 µM | > 100 µM | > 100 µM | > 100 µM | – | – | – | – | – | – | – | – | – | – | –
18 | O=C(CO)C1CC2C=CC1C2 (stereo not given) | > 100 µM | > 100 µM | > 100 µM | > 100 µM | > 100 µM | > 100 µM | > 100 µM | – | – | – | – | – | – | – | – | – | – | –
19 | O=S(=O)(NCCCNc1cc(-c2cn(-c3ccccc3)nc2-c2cccc(O)c2)ccn1)c1ccc(F)cc1 | 11.9 µM | 8.91 µM | 8.75 µM | – | 18.3 µM | 12 µM | 8.27 µM | 2.62 µM | 2.56 µM | 2.85 µM | 4.15 µM | 3.36 µM | 12.9 µM | 3.24 µM | 22.4 µM | 2.92 µM | 2.58 µM | –
